{
  "source": "paper PMC11641208",
  "about": "“Advanced PROTAC and Quantitative Proteomics Strategy Reveals Bax Inhibitor-1 as a Critical Target of Icaritin in Burkitt Lymphoma” (International Journal of Molecular Sciences, 2024)",
  "molecular_target": "T1, Bax inhibitor-1 (BI-1) (Homo sapiens, UniProt P55061)",
  "T1 construct": "gene TMBIM6",
  "T1 sequence (P55061 whole entry)": "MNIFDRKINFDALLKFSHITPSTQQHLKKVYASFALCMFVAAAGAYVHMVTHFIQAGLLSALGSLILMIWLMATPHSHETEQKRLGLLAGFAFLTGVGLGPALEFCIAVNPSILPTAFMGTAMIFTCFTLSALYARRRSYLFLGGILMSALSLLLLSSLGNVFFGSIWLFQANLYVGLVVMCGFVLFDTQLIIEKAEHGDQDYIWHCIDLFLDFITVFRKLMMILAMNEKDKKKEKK",
  "assay": "SPR (Biacore T200, BI-1 immobilised on CM5 chip, kinetic […] fit)",
  "format": "binding",
  "data": [
    {"compound": "C#CCOc1cc(O)c2c(=O)c(OCCOCCOCCOCC(=O)NCCCCCC(=O)Nc3cccc4c3CN(C3CCC(=O)NC3=O)C4=O)c(-c3ccc(OC)cc3)oc2c1CC=C(C)C", "note": "(stereo not shown) [compound 10, LJ-41]", "values": [
      {"measurement": "Kd", "result": 79.7, "unit": "µM"}
    ]}
  ]
}
